# Results published in patent US20260262643A1, “HERBICIDAL BENZOXAZINES” (FMC CORPORATION, priority 2022, published 2026).
# Columns and labels:
# [1] = system: galium; test: Test C postemergence; type: in vivo, Galium aparine; conditions: 10 days
# Procedure, shortened: (§1)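 Seeds sown in loam soil–sand blend received a directed preemergence soil spray of test chemical in non-phytotoxic solvent with surfactant; postemergence plants (2–10 cm, one- to two-leaf stage) were sprayed with the same formulation. Greenhouse-held 10 days, then visually rated for injury versus untreated controls, 0 (no effect) to 100 (complete control).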
# [2] = system: sedge, umbrella; test: Test D flooded paddy test; type: in vivo, Cyperus difformis; conditions: 250 g ai/ha, applied to paddy water, visual rating after 13 to 14 days, scale 0 to 100 (0 no effect, 100 complete control)
# Procedure, shortened: (§2)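 At the 2-leaf stage, floodwater 3 cm deep received the test compound; that depth persisted throughout. Plants scored visually 13 to 14 days on, 0 (no effect) to 100 (complete control), dash indicating no result.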
# [3] = system: ducksalad; test: Test D flooded paddy test; type: in vivo, Heteranthera limosa; conditions: 250 g ai/ha, applied to paddy water, visual rating after 13 to 14 days, scale 0 to 100 (0 no effect, 100 complete control)
# Procedure, shortened: as §2
# [4] = system: ryegrass, Italian; test: Test C preemergence; type: in vivo, Lolium multiflorum; conditions: for Ryegrass, Italian plant response rating: preemergence, 0 to 100 scale (0 no effect, 100 complete control)
# Procedure, shortened: as §1
# [5] = system: ragweed; test: Test C postemergence; type: in vivo, Ambrosia artemisiifolia; conditions: 10 days
# Procedure, shortened: as §1
# [6] = system: oat, wild; test: Test C preemergence; type: in vivo, Avena fatua; conditions: for Oat, Wild plant response rating: preemergence, 0 to 100 scale (0 no effect, 100 complete control)
# Procedure, shortened: as §1
# [7] = system: pigweed, palmer; test: Test C preemergence; type: in vivo, Amaranthus palmeri; conditions: for Pigweed, Palmer plant response rating: preemergence, 0 to 100 scale (0 no effect, 100 complete control)
# Procedure, shortened: as §1
# [8] = system: barnyardgrass; test: Test D flooded paddy test; type: in vivo, Echinochloa crus-galli; conditions: 250 g ai/ha, applied to paddy water, visual rating after 13 to 14 days, scale 0 to 100 (0 no effect, 100 complete control)
# Procedure, shortened: as §2
# [9] = system: wheat; test: Test C postemergence; type: in vivo, Triticum aestivum; conditions: 10 days
# Procedure, shortened: as §1
# [10] = system: barnyardgrass; test: Test C postemergence; type: in vivo, Echinochloa crusgalli; conditions: 10 days
# Procedure, shortened: as §1
# [11] = system: horseweed; test: Test C postemergence; type: in vivo, Erigeron canadensis; conditions: 10 days
# Procedure, shortened: as §1
# [12] = system: oat, wild; test: Test C postemergence; type: in vivo, Avena fatua; conditions: 10 days
# Procedure, shortened: as §1
# [13] = system: kochia; test: Test C postemergence; type: in vivo, Bassia scoparia; conditions: 10 days
# Procedure, shortened: as §1
# [14] = system: corn; test: Test C postemergence; type: in vivo, Zea mays; conditions: 10 days
# Procedure, shortened: as §1
# [15] = system: green foxtail; test: Test C postemergence; type: in vivo, Setaria viridis; conditions: 10 days
# Procedure, shortened: as §1
# [16] = system: soybean; test: Test C postemergence; type: in vivo, Glycine max; conditions: 10 days
# Procedure, shortened: as §1
# [17] = system: corn; test: Test C preemergence; type: in vivo, Zea mays; conditions: for Corn plant response rating: preemergence, 0 to 100 scale (0 no effect, 100 complete control)
# Procedure, shortened: as §1
# [18] = system: pigweed, palmer; test: Test C postemergence; type: in vivo, Amaranthus palmeri; conditions: 10 days
# Procedure, shortened: as §1
# [19] = system: blackgrass; test: Test C preemergence; type: in vivo, Alopecurus myosuroides; conditions: for Blackgrass plant response rating: preemergence, 0 to 100 scale (0 no effect, 100 complete control)
# Procedure, shortened: as §1
# [20] = system: ryegrass, Italian; test: Test C postemergence; type: in vivo, Lolium multiflorum; conditions: 10 days
# Procedure, shortened: as §1
# [21] = system: wheat; test: Test C preemergence; type: in vivo, Triticum aestivum; conditions: for Wheat plant response rating: preemergence, 0 to 100 scale (0 no effect, 100 complete control)
# Procedure, shortened: as §1
# [22] = system: green foxtail; test: Test C preemergence; type: in vivo, Setaria viridis; conditions: for Foxtail, Green plant response rating: preemergence, 0 to 100 scale (0 no effect, 100 complete control)
# Procedure, shortened: as §1
# [23] = system: blackgrass; test: Test C postemergence; type: in vivo, Alopecurus myosuroides; conditions: 10 days
# Procedure, shortened: as §1
# [24] = system: rice; test: Test D flooded paddy test; type: in vivo, Oryza sativa; conditions: 250 g ai/ha, applied to paddy water, visual rating after 13 to 14 days, scale 0 to 100 (0 no effect, 100 complete control)
# Procedure, shortened: as §2
# [25] = system: ragweed; test: Test C preemergence; type: in vivo, Ambrosia artemisiifolia; conditions: for Ragweed plant response rating: preemergence, 0 to 100 scale (0 no effect, 100 complete control)
# Procedure, shortened: as §1
# [26] = system: kochia; test: Test C preemergence; type: in vivo, Bassia scoparia; conditions: for Kochia plant response rating: preemergence, 0 to 100 scale (0 no effect, 100 complete control)
# Procedure, shortened: as §1
# [27] = system: soybean; test: Test C preemergence; type: in vivo, Glycine max; conditions: for Soybean plant response rating: preemergence, 0 to 100 scale (0 no effect, 100 complete control)
# Procedure, shortened: as §1
# [28] = system: barnyardgrass; test: Test C preemergence; type: in vivo, Echinochloa crusgalli; conditions: for Barnyardgrass plant response rating: preemergence, 0 to 100 scale (0 no effect, 100 complete control)
# Procedure, shortened: as §1
# [29] = 500 g ai/ha, postemergence, 0 to 100 scale (0 no effect, 100 complete control)
# [30] = Postemergence, 125 g ai/ha, 0 to 100 scale (0 no effect, 100 complete control)
# [31] = Preemergence, 125 g ai/ha, 0 to 100 scale, 0 no effect, 100 complete control
# [32] = 125 g ai/ha, postemergence, 0 to 100 scale, 0 no effect, 100 complete control
structure (smiles),measurement,setting,value
CC(=O)N(C)c1ncn(-c2cccc(C(=O)N3C[C@H](C)Oc4c(C)cccc43)c2)n1 [Compound 336],"Plant response rating, Galium",[1]; [29],90
same,"Plant response rating, Galium",[1]; [30],60
same,"Plant response rating, Sedge, Umbrella (Flood)",[2],0
same,"Plant response rating, Ducksalad (Flood)",[3],25
same,"Ryegrass, Italian plant response rating",[4]; 500 g ai/ha,90
same,"Plant response rating, Ryegrass, Italian",[4]; [31],70
same,"Plant response rating, Ragweed",[5]; [29],10
same,"Plant response rating, Ragweed",[5]; [30],20
same,"Oat, Wild plant response rating",[6]; 500 g ai/ha,30
same,"Plant response rating, Oat, Wild",[6]; [31],0
same,"Pigweed, Palmer plant response rating",[7]; 500 g ai/ha,90
same,"Plant response rating, Pigweed, Palmer",[7]; [31],10
same,"Plant response rating, Barnyardgrass (Flood)",[8],0
same,"Plant response rating, Wheat",[9]; [29],40
same,"Plant response rating, Wheat",[9]; [30],10
same,"Plant response rating, Barnyardgrass",[10]; [29],60
same,"Plant response rating, Barnyardgrass",[10]; [30],10
same,"Plant response rating, Horseweed",[11]; [29],0
same,"Plant response rating, Horseweed",[11]; [30],0
same,"Plant response rating, Oat, Wild",[12]; [29],70
same,"Plant response rating, Oat, Wild",[12]; [30],10
same,"Plant response rating, Kochia",[13]; [29],80
same,"Plant response rating, Kochia",[13]; [30],60
same,"Plant response rating, Corn",[14]; [29],60
same,"Plant response rating, Corn",[14]; [30],20
same,"Plant response rating, Foxtail, Green",[15]; [29],60
same,"Plant response rating, Foxtail, Green",[15]; [30],20
same,"Plant response rating, Soybean",[16]; [29],100
same,"Plant response rating, Soybean",[16]; [30],80
same,Corn plant response rating,[17]; 500 g ai/ha,20
same,"Plant response rating, Corn",[17]; [31],0
same,"Plant response rating, Pigweed, Palmer",[18]; [29],70
same,"Plant response rating, Pigweed, Palmer",[18]; [30],20
same,Blackgrass plant response rating,[19]; 500 g ai/ha,40
same,"Plant response rating, Blackgrass",[19]; [31],30
same,"Plant response rating, Ryegrass, Italian",[20]; [29],80
same,"Plant response rating, Ryegrass, Italian",[20]; [30],50
same,Wheat plant response rating,[21]; 500 g ai/ha,40
same,"Plant response rating, Wheat",[21]; [31],0
same,"Foxtail, Green plant response rating",[22]; 500 g ai/ha,100
same,"Plant response rating, Foxtail, Green",[22]; [31],80
same,"Plant response rating, Blackgrass",[23]; [29],90
same,"Plant response rating, Blackgrass",[23]; [30],30
same,"Plant response rating, Rice (Flood)",[24],0
same,Ragweed plant response rating,[25]; 500 g ai/ha,0
same,"Plant response rating, Ragweed",[25]; [31],0
same,Kochia plant response rating,[26]; 500 g ai/ha,90
same,"Plant response rating, Kochia",[26]; [31],0
same,Soybean plant response rating,[27]; 500 g ai/ha,30
same,"Plant response rating, Soybean",[27]; [31],0
same,Barnyardgrass plant response rating,[28]; 500 g ai/ha,100
same,"Plant response rating, Barnyardgrass",[28]; [31],20
"Cc1ccc(-n2cnc(C(C)C)n2)cc1C(=O)N1CC(C(F)(F)F)Oc2c(Cl)cccc21 (single isomer, unassigned) [Compound 291]","Plant response rating, Galium",[1]; [32],100
same,"Plant response rating, Galium",[1]; [29],100
same,"Plant response rating, Sedge, Umbrella (Flood)",[2],95
same,"Plant response rating, Ducksalad (Flood)",[3],45
same,"Ryegrass, Italian plant response rating",[4]; 500 g ai/ha,100
same,"Ryegrass, Italian plant response rating","[4]; Test C, 125 g ai/ha",90
same,"Plant response rating, Ragweed",[5]; [32],70
same,"Plant response rating, Ragweed",[5]; [29],80
same,"Oat, Wild plant response rating",[6]; 500 g ai/ha,80
same,"Oat, Wild plant response rating","[6]; Test C, 125 g ai/ha",60
same,"Pigweed, Palmer plant response rating",[7]; 500 g ai/ha,100
same,"Pigweed, Palmer plant response rating","[7]; Test C, 125 g ai/ha",100
same,"Plant response rating, Barnyardgrass (Flood)",[8],40
same,"Plant response rating, Wheat",[9]; [32],30
same,"Plant response rating, Wheat",[9]; [29],70
same,"Plant response rating, Barnyardgrass",[10]; [32],30
same,"Plant response rating, Barnyardgrass",[10]; [29],90
same,"Plant response rating, Horseweed",[11]; [32],60
same,"Plant response rating, Horseweed",[11]; [29],60
same,"Plant response rating, Oat, Wild",[12]; [32],50
same,"Plant response rating, Oat, Wild",[12]; [29],80
same,"Plant response rating, Kochia",[13]; [32],90
same,"Plant response rating, Kochia",[13]; [29],100
same,"Plant response rating, Corn",[14]; [32],20
same,"Plant response rating, Corn",[14]; [29],80
same,"Plant response rating, Foxtail, Green",[15]; [32],30
same,"Plant response rating, Foxtail, Green",[15]; [29],90
same,"Plant response rating, Soybean",[16]; [32],90
same,"Plant response rating, Soybean",[16]; [29],100
same,Corn plant response rating,[17]; 500 g ai/ha,50
same,Corn plant response rating,"[17]; Test C, 125 g ai/ha",30
same,"Plant response rating, Pigweed, Palmer",[18]; [32],100
same,"Plant response rating, Pigweed, Palmer",[18]; [29],100
same,Blackgrass plant response rating,[19]; 500 g ai/ha,70
same,Blackgrass plant response rating,"[19]; Test C, 125 g ai/ha",50
same,"Plant response rating, Ryegrass, Italian",[20]; [32],70
same,"Plant response rating, Ryegrass, Italian",[20]; [29],80
same,Wheat plant response rating,[21]; 500 g ai/ha,50
same,Wheat plant response rating,"[21]; Test C, 125 g ai/ha",30
same,"Foxtail, Green plant response rating",[22]; 500 g ai/ha,100
same,"Foxtail, Green plant response rating","[22]; Test C, 125 g ai/ha",100
same,"Plant response rating, Blackgrass",[23]; [32],0
same,"Plant response rating, Blackgrass",[23]; [29],50
same,"Plant response rating, Rice (Flood)",[24],0
same,Ragweed plant response rating,[25]; 500 g ai/ha,60
same,Ragweed plant response rating,"[25]; Test C, 125 g ai/ha",40
same,Kochia plant response rating,[26]; 500 g ai/ha,100
same,Kochia plant response rating,"[26]; Test C, 125 g ai/ha",80
same,Soybean plant response rating,[27]; 500 g ai/ha,100
same,Soybean plant response rating,"[27]; Test C, 125 g ai/ha",90
same,Barnyardgrass plant response rating,[28]; 500 g ai/ha,100
same,Barnyardgrass plant response rating,"[28]; Test C, 125 g ai/ha",100
